{
  "source": "patent US4879237A",
  "about": "“Use of peptides in control of cell attachment and detachment” (La Jolla Cancer Research Foundation, priority 1985, dated 1989)",
  "system": "NRK cells",
  "assay": "Toxicity by trypan blue exclusion and replating of detached cells",
  "assay_type": "cell-based, rat",
  "procedure": "The activities of the crude and high performance liquid chromatrography (HPLC)-purified GRGDSP peptide were similar. […] To study the correlation of detaching capacity with the cell attachment-promoting and attachment-inhibiting effects established previously (Pierschbacher and Ruoslahti, 1984a; 1984b), each of the following listed peptides was tested for its ability to detach cells: […]",
  "data": [
    {"smiles": "N=C(N)NCCC[C@H](NC(=O)CN)C(=O)NCC(=O)N[C@@H](CC(=O)O)C(=O)N[C@@H](CO)C(=O)N1CCC[C@H]1C(=O)O", "note": "[GRGDSP, GLY-ARG-GLY-ASP-SER-PRO]", "values": [
      {"measurement": "replating of aggregates washed free of the peptide", "setting": "NRK aggregates", "value": "attached to the dish"},
      {"measurement": "cell death by trypan blue exclusion", "setting": "detached NRK cells", "value": "no cell death could be detected"}
    ]}
  ]
}
